Columns and labels:
Chlorella capsulata = experiment: Algae growth on antifoulant-loaded PMMA samples suspended 35 days in a salt water aquarium, read by optical transmission; type: cell-based; details: 35 days in algae tank; for effect on algae growth: antifoulant in solvent-cast PMMA sheet
Protocol: To test the antifoulant properties of the capsaicin-loaded PMMA and the mixtures of algaecides and polymers, a marine environment was established. Tests were performed in a salt water environment as opposed to a freshwater environment due to the aggressive growth of salt water plants and animals. The supposition is that if the antifoulant-doped coverglass works in a salt water environment, it will work in a fresh water environment. Using a standard 5-gallon aquarium, the salt water environment was set up using a commercially available sea salt solution (INSTANT OCEAN®). The solution was prepared to have a specific gravity of 1.020-1.023, a pH of ˜8.3, and a water temperature of about 27° C. A small aliquot of Chlorella capsulata (a known aggressive biofouling algae) was obtained from the UTEX Culture Collection of Algae and grown in the aquarium. Growth of the algae was further enhanced using an algae growth promoter (KENT PRO-CULTURE). After four weeks of growth, a dense algae growth was present in the aquarium.
PMMA/capsaicin samples of varying capsaicin concentration were prepared as previously described. The samples to be tested were cut into 25×25 mm squares and suspended in the aquarium. To ensure that no location-dependent effects were incorporated into the study, the samples were rotated every few days. The aquarium lights and air system were left running at all times. The samples were left in place for 35 days.
After 35 days, the samples were removed from the tank and rinsed carefully with deionized water to remove any adhering salts. The algae coated samples were then tested for their optical transmission properties using the Ocean Optics SD2000 UV-Vis spectrometer. To properly hold and test the samples, samples wetted with a couple of drops of deionized water were placed in between two standard 1″×3″ microscope slides. […] In fact, algae grew better on the samples with a higher concentration of capsaicin.
Algae growth studies similar to that conducted for the capsaicin-loaded PMMA were then conducted for the Diuron/PMMA and Irgarol®/PMMA samples. […]

[1] = Decomposition point temperature by thermal gravimetric analysis; type: physicochemical
Protocol: The decomposition point temperature, or the temperature at which a material burns or decomposes, of the antifoulants must be above the processing temperature of the polymer. As determined by thermal gravimetric analysis, the decomposition point temperatures are 210° C. for capsaicin, 208° C. for Diuron, and 196° C. for Irgarol® 1051. The processing temperatures for melt extrusion are: for PMMA, 125° C.; for CBDO terephthalates (Cycloshield®), 130° C., and for polycarbonate, 190° C. It is expected that the antibiofoulants will be entrained in the polymer matrices. This entrainment is a key to the antifouling properties of the coverglasses or windows as it is the chemical nature of the antibiofoulants that provides the antifouling properties. In a typical matrix with entrained compounds there will always be some of these compounds exposed at the surface. Further, depending on the nature of the matrix, there will also be some diffusion rate of the compounds throughout the material.

[2] = Leaching rate of algaecides from PMMA substrates in water, by UV spectroscopy; type: physicochemical; details: for leach rate: deionized water, 35 days; for leaching into test tanks: after five months, up to the limit of the spectrometer
Protocol: The effective lifetimes of the antifoulant-containing coverglass materials were tested by studying the leaching rate of the algaecides from PMMA substrates in water. The UV absorption bands of Diuron (at 254 nm) and Irgarol® (at 234 nm) were used to detect their presence in aqueous solutions. To study the leaching rate, duplicate samples of the highest concentration of algaecide in PMMA (4% by weight for Diuron and 0.5% for Irgarol®; three samples each) were placed in separate closed containers of ultra-pure deionized water (18 MΩ purity). After 35 days, the concentration of algaecide that had leached into the water was determined by UV spectroscopy using a standard Beer-Lambert law relationship:
Where A is the absorbance of the compound, ε is the extinction coefficient associated with the compound, l is the cell path length, and C is the concentration of the compound. By establishing a suitable set of calibration curves, ε can be calculated from empirical results. A set of calibration curves for both Diuron and Irgarol® was established from 10^−3 M to 10^−7 M in aqueous solution. A Mineral Light Short Wave UV source was used to provide the input light, while the absorption of the samples was collected with the Ocean Optics S2000 previously discussed. Aqueous samples were placed into closed quartz cuvettes for analysis. For the UV measurements the Ocean Optics spectrometer was equipped with a UV transmissive fiber optic cable and spectra collected from 200 nm to 575 nm. Absorbance was measured at the previously mentioned values. A reference sample of ultra-pure deionized water was used for this study.
The study determined that the lower limit of the spectrometer was approximately 10^−5 M concentration for these algaecides. […] That compares favorably to the reported leach rate of 4.04 μg cm^−2 days^−1 reported for leaching of Irgarol® from marine paints.

[3] = leaching from marine paints, reported value; cited from earlier work

SMILES	loss of visible transmission after algae growth (Chlorella capsulata; PMMA/capsaicin samples of varying capsaicin concentration)	effect on algae growth (Chlorella capsulata)	decomposition point temperature [1]	leach rate ([2]; 0.5% Irgarol in PMMA, no absorption at 234 nm)	leaching into test tanks [2]	reported leach rate from marine paints [3]	leach rate ([2]; 4% by weight Diuron in PMMA, no absorption at 254 nm)
COc1cc(CNC(=O)CCCC/C=C/C(C)C)ccc1O [capsaicin]	the greater the concentration of capsaicin, the greater was the loss of transmission	no effect in decreasing algae growth	210 °C				
CSc1nc(NC2CC2)nc(NC(C)(C)C)n1 [Irgarol®, N-(tert-butyl)-N′-cyclopropyl-6-(methylthio)-1,3,5-triazine-2,4-diamine]			196 °C	< 1.81 μg cm^−2 day^−1	no evidence was found	4.04 μg cm^−2 days^−1	
CN(C)C(=O)Nc1ccc(Cl)c(Cl)c1 [Diuron, 3-(3,4-dichlorophenyl)-1,1-dimethylurea]		no sign of algae growth	208 °C		no evidence was found		below 1.67 μg cm^−2 days^−1
